Assay results: patent publication US6479435B1, “Diaryl ethers and processes for their preparation and herbicidal and desiccant compositions containing them” (ISK Americas Incorporated, priority 1997, dated 2002)

Legend:
Format in all cases: in vivo
[1] = test system: Johnsongrass (Sorghum halepense, SORHA); test: Pre-emerge greenhouse herbicide test, phytotoxicity rating; details: 14 days after application, rating scale 0-100
In short: (§1)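 Seeds sown in sandy loam mix one day before track-sprayer application of compounds in acetone at 125–1000 g ai/ha (187 l/ha), then surface-watered to incorporate and bottom-watered. Visual rating 14 days after application on a 0–100 scale (0 = no damage, 100 = all plants dead).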

[2] = test system: barnyardgrass (Echinochloa crusgalli, ECHCG); test: as above; details: 14 days after application, rating scale 0-100
In short: as §1

[3] = test system: common ragweed (Ambrosia artemisiifolia L., AMBEL); test: as above; details: 14 days after application, rating scale 0-100
In short: as §1

[4] = test system: green foxtail (Setaria viridis, SETVI); test: as above; details: 14 days after application, rating scale 0-100
In short: as §1

[5] = test system: ivyleaf morningglory (Ipomoea hederacea, IPOHE); test: as above; details: 14 days after application, rating scale 0-100
In short: as §1

[6] = test system: lambsquarters (Chenopodium album, CHEAL); test: as above; details: 14 days after application, rating scale 0-100
In short: as §1

[7] = test system: large crabgrass (Digitaria sanguinalis, DIGSA); test: as above; details: 14 days after application, rating scale 0-100
In short: as §1

[8] = test system: redroot pigweed (Amaranthus retroflexus, AMARE); test: as above; details: 14 days after application, rating scale 0-100
In short: as §1

[9] = test system: sicklepod (Cassia obtusifolia, CASOB); test: as above; details: 14 days after application, rating scale 0-100
In short: as §1

[10] = test system: velvetleaf (Abutilon theophrasti, ABUTH); test: as above; details: 14 days after application, rating scale 0-100
In short: as §1

[11] = test system: field corn (Zea mays L., var. Dekalb 535, CORN); test: Pre-emerge greenhouse test, crop damage rating; details: 14 days after application, rating scale 0-100
In short: as §1

[12] = test system: upland rice (Oryza sp., var.Tebonnet, RICE); test: Pre-emerge greenhouse test, crop damage rating; details: 14 days after application, rating scale 0-100
In short: as §1

[13] = test system: soybean (Glycine max L., var. Pella 86, SOY); test: Pre-emerge greenhouse test, crop damage rating; details: 14 days after application, rating scale 0-100
In short: as §1

[14] = test system: common ragweed (Ambrosia artemisiifolia L., AMBEL); test: Post-emerge greenhouse herbicide test, phytotoxicity rating; details: 14 days after application
In short: (§2)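 Compounds in acetone with 0.25% v/v non-ionic surfactant were track-sprayed at 187 l/ha over plants at the 2-3 leaf stage, at 63 to 1000 g ai/ha. Pots were bottom-watered. Injury was scored visually 14 days later on a 0-100 scale, where 0 is no damage and 100 is complete plant death.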

[15] = test system: Johnsongrass (Sorghum halepense, SORHA); test: as above; details: 14 days after application
In short: as §2

[16] = test system: barnyardgrass (Echinochloa crusgalli, ECHCG); test: as above; details: 14 days after application
In short: as §2

[17] = test system: green foxtail (Setaria viridis, SETVI); test: as above; details: 14 days after application
In short: as §2

[18] = test system: ivyleaf morningglory (Ipomoea hederacea, IPOHE); test: as above; details: 14 days after application
In short: as §2

[19] = test system: lambsquarters (Chenopodium album, CHEAL); test: as above; details: 14 days after application
In short: as §2

[20] = test system: large crabgrass (Digitaria sanguinalis, DIGSA); test: as above; details: 14 days after application
In short: as §2

[21] = test system: redroot pigweed (Amaranthus retroflexus, AMARE); test: as above; details: 14 days after application
In short: as §2

[22] = test system: sicklepod (Cassia obtusifolia, CASOB); test: as above; details: 14 days after application
In short: as §2

[23] = test system: velvetleaf (Abutilon theophrasti, ABUTH); test: as above; details: 14 days after application
In short: as §2

[24] = test system: field corn (Zea mays L., var. Dekalb 535, CORN); test: Post-emerge greenhouse test, crop damage rating; details: 14 days after application
In short: as §2

[25] = test system: upland rice (Oryza sp., var.Tebonnet, RICE); test: Post-emerge greenhouse test, crop damage rating; details: 14 days after application
In short: as §2

[26] = test system: soybean (Glycine max L., var. Pella 86, SOY); test: Post-emerge greenhouse test, crop damage rating; details: 14 days after application
In short: as §2

For `CCN1CC(=O)N(c2cc(Oc3ncccn3)c(Cl)cc2F)C1=O` [Compound 8-2], the “phytotoxicity rating SORHA” value ([1]; 125 g ai/ha) was 20, the “phytotoxicity rating SORHA” value ([1]; 500 g ai/ha) was 100 and the “phytotoxicity rating ECHCG” value ([2]; 125 g ai/ha) was 10. For the same compound, the “phytotoxicity rating ECHCG” value ([2]; 500 g ai/ha) was 100, the “phytotoxicity rating AMBEL” value ([3]; 125 g ai/ha) was 95 and the “phytotoxicity rating AMBEL” value ([3]; 500 g ai/ha) was 100. The “phytotoxicity rating SETVI” value ([4]; 125 g ai/ha) was 95, the “phytotoxicity rating SETVI” value ([4]; 500 g ai/ha) was 100 and the “phytotoxicity rating IPOHE” value ([5]; 125 g ai/ha) was 100. The “phytotoxicity rating IPOHE” value ([5]; 500 g ai/ha) was 100, the “phytotoxicity rating CHEAL” value ([6]; 125 g ai/ha) was 100 and the “phytotoxicity rating CHEAL” value ([6]; 500 g ai/ha) was 100. For the same compound, the “phytotoxicity rating DIGSA” value ([7]; 125 g ai/ha) was 90, the “phytotoxicity rating DIGSA” value ([7]; 500 g ai/ha) was 100 and the “phytotoxicity rating AMARE” value ([8]; 125 g ai/ha) was 100. For the same compound, the “phytotoxicity rating AMARE” value ([8]; 500 g ai/ha) was 100, the “phytotoxicity rating CASOB” value ([9]; 125 g ai/ha) was 0 and the “phytotoxicity rating CASOB” value ([9]; 500 g ai/ha) was 80. For the same compound, the “phytotoxicity rating ABUTH” value ([10]; 125 g ai/ha) was 100, the “phytotoxicity rating ABUTH” value ([10]; 500 g ai/ha) was 100 and the “crop damage rating CORN” value ([11]; 125 g ai/ha) was 0. For the same compound, the “crop damage rating CORN” value ([11]; 500 g ai/ha) was 50, the “crop damage rating RICE” value ([12]; 125 g ai/ha) was 40 and the “crop damage rating RICE” value ([12]; 500 g ai/ha) was 90. The “crop damage rating SOY” value ([13]; 125 g ai/ha) was 0, the “crop damage rating SOY” value ([13]; 500 g ai/ha) was 20 and the “AMBEL phytotoxicity rating (0-100)” value ([14]; 63 g al/ha) was 30. For the same compound, the “AMBEL phytotoxicity rating (0-100)” value ([14]; 500 g al/ha) was 95, the “SORHA phytotoxicity rating (0-100)” value ([15]; 63 g al/ha) was 0 and the “SORHA phytotoxicity rating (0-100)” value ([15]; 500 g al/ha) was 20. The “ECHCG phytotoxicity rating (0-100)” value ([16]; 63 g al/ha) was 10, the “ECHCG phytotoxicity rating (0-100)” value ([16]; 500 g al/ha) was 50 and the “SETVI phytotoxicity rating (0-100)” value ([17]; 63 g al/ha) was 10. For the same compound, the “SETVI phytotoxicity rating (0-100)” value ([17]; 500 g al/ha) was 30, the “IPOHE phytotoxicity rating (0-100)” value ([18]; 63 g al/ha) was 70 and the “IPOHE phytotoxicity rating (0-100)” value ([18]; 500 g al/ha) was 100. The “CHEAL phytotoxicity rating (0-100)” value ([19]; 63 g al/ha) was 80, the “CHEAL phytotoxicity rating (0-100)” value ([19]; 500 g al/ha) was 100 and the “DIGSA phytotoxicity rating (0-100)” value ([20]; 63 g al/ha) was 0. The “DIGSA phytotoxicity rating (0-100)” value ([20]; 500 g al/ha) was 20, the “AMARE phytotoxicity rating (0-100)” value ([21]; 63 g al/ha) was 60 and the “AMARE phytotoxicity rating (0-100)” value ([21]; 500 g al/ha) was 100. The “CASOB phytotoxicity rating (0-100)” value ([22]; 63 g al/ha) was 20, the “CASOB phytotoxicity rating (0-100)” value ([22]; 500 g al/ha) was 50 and the “ABUTH phytotoxicity rating (0-100)” value ([23]; 63 g al/ha) was 60. The “ABUTH phytotoxicity rating (0-100)” value ([23]; 500 g al/ha) was 100, the “CORN crop damage rating (0-100)” value ([24]; 63 g al/ha) was 5 and the “CORN crop damage rating (0-100)” value ([24]; 500 g al/ha) was 15. For the same compound, the “RICE crop damage rating (0-100)” value ([25]; 63 g al/ha) was 0, the “RICE crop damage rating (0-100)” value ([25]; 500 g al/ha) was 70 and the “SOY crop damage rating (0-100)” value ([26]; 63 g al/ha) was 10. The “SOY crop damage rating (0-100)” value ([26]; 500 g al/ha) was 90.
